Results: ChEMBL document CHEMBL1126271, “Benzazepinone calcium channel blockers. 5. Effects on antihypertensive activity associated with N1 and aromatic substituents” (J Med Chem, 1992)

Assays:
Type in all cases: functional
Rattus norvegicus [1] = test: Antihypertensive activity 12-18 hr after 135 umol/kg p.o. in rats.
Rattus norvegicus [2] = species: Rattus norvegicus; test: Extent of hydrolysis of C3 acetyl group of 0.4 mM of compound 5 min after exposure by rat liver homogenate
Rattus norvegicus [3] = species: Rattus norvegicus; test: Extent of hydrolysis of C3 acetyl group of 0.4 mM of compound 30 min after exposure by rat liver homogenate
Rattus norvegicus [4] = test: Antihypertensive activity 0-6 hr after 135 umol/kg p.o. in rats.
Rattus norvegicus [5] = test: Antihypertensive activity 6-12h after 135 umol/kg p.o. in rats.
Oryctolagus cuniculus = species: Oryctolagus cuniculus; test: In vitro vasorelaxant activity in circumferential strips of potassium-depolarized rabbit aorta.

SMILES: COc1ccc([C@@H]2Cc3c(cccc3C(F)(F)F)N(C[C@@H]3CCCN3)C(=O)[C@@H]2OC(C)=O)cc1
- Decrease in blood pressure (Rattus norvegicus [1]): 38%
- Hydrolysis (Rattus norvegicus [2]): 0%
- Hydrolysis (Rattus norvegicus [3]): 0%
- Decrease in blood pressure (Rattus norvegicus [4]): 44%

SMILES: COc1ccc([C@@H]2Sc3ccccc3N(CCN(C)C)C(=O)[C@@H]2OC(C)=O)cc1 [DILTIAZEM]
- Decrease in blood pressure (Rattus norvegicus [1]): 19%
- Hydrolysis (Rattus norvegicus [2]): 68%
- Hydrolysis (Rattus norvegicus [3]): 100%
- Decrease in blood pressure (Rattus norvegicus [4]): 20%

SMILES: COc1ccc(C2Cc3c(Cl)cccc3N(CCN(C)C)C(=O)C2OC(C)=O)cc1 (racemic)
- Decrease in blood pressure (Rattus norvegicus [4]): 10%

SMILES: COc1ccc([C@@H]2Sc3ccccc3N(C[C@@H]3CCCN3)C(=O)[C@@H]2OC(C)=O)cc1
- Decrease in blood pressure (Rattus norvegicus [1]): 10%
- Decrease in blood pressure (Rattus norvegicus [5]): 8%
- IC50 (Oryctolagus cuniculus): 340 nM
- Hydrolysis (Rattus norvegicus [2]): 32%
- Hydrolysis (Rattus norvegicus [3]): 57%
- Decrease in blood pressure (Rattus norvegicus [4]): 18%

SMILES: COc1ccc([C@@H]2Cc3cc(OC)ccc3N(C[C@@H]3CCCN3)C(=O)[C@@H]2OC(C)=O)cc1
- Decrease in blood pressure (Rattus norvegicus [1]): 31%
- Decrease in blood pressure (Rattus norvegicus [5]): 33%
- IC50 (Oryctolagus cuniculus): 230 nM
- Hydrolysis (Rattus norvegicus [2]): 3%
- Hydrolysis (Rattus norvegicus [3]): 3%
- Decrease in blood pressure (Rattus norvegicus [4]): 39%

SMILES: COc1ccc([C@@H]2Sc3cc(OC)ccc3N(C[C@@H]3CCCN3)C(=O)[C@@H]2O)cc1
- Decrease in blood pressure (Rattus norvegicus [1]): 23%
- Decrease in blood pressure (Rattus norvegicus [5]): 33%
- IC50 (Oryctolagus cuniculus): 370 nM
- Decrease in blood pressure (Rattus norvegicus [4]): 32%

SMILES: COc1ccc([C@@H]2Cc3cc(OC)ccc3N(C[C@@H]3CCCN3)C(=O)[C@@H]2O)cc1
- Decrease in blood pressure (Rattus norvegicus [1]): 18%
- Decrease in blood pressure (Rattus norvegicus [5]): 19%
- IC50 (Oryctolagus cuniculus): 1120 nM
- Decrease in blood pressure (Rattus norvegicus [4]): 18%

SMILES: COc1ccc([C@@H]2Cc3c(cccc3C(F)(F)F)N(CCN(C)C)C(=O)[C@@H]2OC(C)=O)cc1
- Decrease in blood pressure (Rattus norvegicus [1]): 29%
- Decrease in blood pressure (Rattus norvegicus [5]): 29%
- Hydrolysis (Rattus norvegicus [2]): 0%
- Hydrolysis (Rattus norvegicus [3]): 2%
- Decrease in blood pressure (Rattus norvegicus [4]): 29%

SMILES: COc1ccc([C@@H]2Cc3c(cccc3C(F)(F)F)N(C[C@@H]3CCCN3)C(=O)[C@@H]2O)cc1
- Decrease in blood pressure (Rattus norvegicus [1]): 21%
- Decrease in blood pressure (Rattus norvegicus [5]): 21%
- IC50 (Oryctolagus cuniculus): 100 nM
- Decrease in blood pressure (Rattus norvegicus [4]): 32%

SMILES: COc1ccc([C@@H]2Sc3ccccc3N(C[C@@H]3CCCN3)C(=O)[C@@H]2O)cc1
- Decrease in blood pressure (Rattus norvegicus [1]): 9%
- Decrease in blood pressure (Rattus norvegicus [5]): 10%
- IC50 (Oryctolagus cuniculus): 1320 nM
- Decrease in blood pressure (Rattus norvegicus [4]): 10%

SMILES: COc1ccc([C@@H]2Cc3ccccc3N(CCN(C)C)C(=O)[C@@H]2OC(C)=O)cc1
- Decrease in blood pressure (Rattus norvegicus [1]): 13%
- IC50 (Oryctolagus cuniculus): 2990 nM
- Hydrolysis (Rattus norvegicus [2]): 18%
- Hydrolysis (Rattus norvegicus [3]): 53%

SMILES: COc1ccc(C2Cc3cc(C(F)(F)F)ccc3N(CCN(C)C)C(=O)C2OC(C)=O)cc1 (stereo unspecified)
- IC50 (Oryctolagus cuniculus): 1900 nM

SMILES: COc1ccc([C@@H]2Sc3cc(OC)ccc3N(C[C@@H]3CCCN3)C(=O)[C@@H]2OC(C)=O)cc1
- Decrease in blood pressure (Rattus norvegicus [1]): 37%
- Decrease in blood pressure (Rattus norvegicus [5]): 39%
- IC50 (Oryctolagus cuniculus): 120 nM
- Hydrolysis (Rattus norvegicus [2]): 3%
- Hydrolysis (Rattus norvegicus [3]): 7%
- Decrease in blood pressure (Rattus norvegicus [4]): 42%

SMILES: COc1ccc([C@@H]2Cc3c(Cl)cccc3N(C[C@@H]3CCCN3)C(=O)[C@@H]2O)cc1
- Decrease in blood pressure (Rattus norvegicus [1]): 13%
- Decrease in blood pressure (Rattus norvegicus [5]): 15%
- IC50 (Oryctolagus cuniculus): 130 nM
- Decrease in blood pressure (Rattus norvegicus [4]): 19%

SMILES: COc1ccc(C2Sc3cc(OC)ccc3N(CCN(C)C)C(=O)C2OC(C)=O)cc1 (racemic)
- Decrease in blood pressure (Rattus norvegicus [1]): 19%
- Decrease in blood pressure (Rattus norvegicus [5]): 21%
- IC50 (Oryctolagus cuniculus): 130 nM
- Decrease in blood pressure (Rattus norvegicus [4]): 34%

SMILES: COc1ccc([C@@H]2Cc3c(Cl)cccc3N(C[C@@H]3CCCN3)C(=O)[C@@H]2OC(C)=O)cc1
- Decrease in blood pressure (Rattus norvegicus [1]): 20%
- Decrease in blood pressure (Rattus norvegicus [5]): 17%
- IC50 (Oryctolagus cuniculus): 120 nM
- Hydrolysis (Rattus norvegicus [2]): 7%
- Hydrolysis (Rattus norvegicus [3]): 17%
- Decrease in blood pressure (Rattus norvegicus [4]): 18%

SMILES: COc1ccc([C@@H]2Cc3cc(Cl)ccc3N(CCN(C)C)C(=O)[C@@H]2OC(C)=O)cc1
- Decrease in blood pressure (Rattus norvegicus [1]): 12%
- Decrease in blood pressure (Rattus norvegicus [5]): 12%
- Decrease in blood pressure (Rattus norvegicus [4]): 12%

SMILES: COc1ccc([C@@H]2Cc3cc(C(F)(F)F)ccc3N(CCN(C)C)C(=O)[C@@H]2OC(C)=O)cc1
- Decrease in blood pressure (Rattus norvegicus [4]): 19%
